pIC50: −log10 of the molar value. Counter-ions that a name gives are not always drawn.
The compounds below were run against T1, HIV integrase (Human immunodeficiency virus type 1 group M subtype B, UniProt P12497, F1332H) (assay: Determination of enzyme (HIV integrase) inhibitory activity). Conditions: recombinant HIV integrase (F185H), strand transfer ELISA, absorbance at 450 nm.
T1 construct: HIV integrase full length gene; made in house; host or cells: Escherichia coli BL21(DE3), plasmid pET21a-INH
Type: biochemical
Text: The following explains evaluation methods of the HIV integrase inhibitory activity of the compound of the present invention.
(i) Construction of Recombinant Integrase Gene Expression System
The 185th phenylalanine of HIV integrase full length gene (J. Virol., 67, 425–437 (1993)) was substituted by histidine and inserted into the restriction enzyme NdeI and XhoI sites of plasmid pET21a(+) (Novagen), whereby an integrase expression vector pET21a-INH was constructed.
(ii) Production and Purification of Integrase Protein
Escherichia coli recombinant BL21(DE3) transformed with plasmid pET21a-INH obtained in (i) was shake cultured at 37° C. in a liquid medium containing ampicillin. When the culture reached the logarithmic growth phase, isopropyl-β-D-thiogalactopyranoside was added to promote expression of integrase gene. The culture was continued for 3 hr to promote accumulation of the integrase protein. The recombinant E. coli was collected in pellets by centrifugal separation and preserved at −80° C.
The E. coli was suspended in Lysis buffer (20 mM HEPES (pH 7.5), 5 mM DTT, 10 mM CHAPS, 10% glycerol) containing 1M sodium chloride and subjected to repeat pressurization and depressurization for rupture, and centrifugal separation at 4° C., 40,000×g, 60 min to recover a water-soluble fraction (supernatant). This was diluted 10-fold with Lysis buffer free of sodium chloride, mixed with SP-Sepharose (Pharmacia Corporation) and stirred at 4° C. for 30 min to allow adsorption of integrase protein to the resin. The resin was washed with Lysis buffer containing 100 mM sodium chloride and the integrase protein was eluted with Lysis buffer containing 1M sodium chloride.
The eluted integrase protein solution was applied to a Superdex 75 (Pharmacia Corporation) column for gel filtration. The protein was eluted with Lysis buffer containing 1M sodium chloride.
The obtained fractions of the integrase protein were collected and preserved at −80° C.
(iii) Preparation of DNA Solution
The following DNA synthesized by Greiner was dissolved in TE buffer (10 mM Tris-hydrochloric acid (pH 8.0), 1 mM EDTA) and mixed with donor DNA, target DNA, and each complementary strand (+ and − strands) to 1 μM. The mixture was heated at 95° C. for 5 min, 80° C. for 10 min, 70° C. for 10 min, 60° C. for 10 min, 50° C. for 10 min and 40° C. for 10 min and preserved at 25° C. to give a double stranded DNA, which was used for the test.
Donor DNA (− strand having biotin attached to the 5′ terminal)
(iv) Determination of Enzyme (HIV Integrase) Inhibitory Activity
The donor DNA was diluted with TE buffer to 10 nM, of which 50 μl was added to each well of streptavidin-coated microtiter plate (Roche) and allowed to adsorb at 37° C. for 60 min. The DNA was washed with phosphate buffer (Dulbecco PBS, Sanko Junyaku Co., Ltd.) containing 0.1% Tween 20 and phosphate buffer. Then, a reaction mixture (70 μl) having the following composition, a test substance (10 μl) diluted with the reaction mixture and 100 μg/ml integrase protein (10 μl) were added to each well and reacted at 37° C. for 60 min.
Composition of the reaction mixture: 30 mM MOPS (3-morpholinopropanesulfonic acid), 5 mM magnesium chloride, 3 mM DTT (dithiothreitol), 0.1 mg/ml BSA (bovine serum albumin), 5% glycerol, 10% DMSO (dimethyl sulfoxide), 0.01% Tween 20.
Then, 50 nM target DNA (10 μl) was added, reacted at 37° C. for 10 min and washed with phosphate buffer containing 0.1% Tween 20 to stop the reaction.
Then, 100 mU/ml peroxidase labeled anti-digoxigenin antibody solution (Roche, 100 μl) was added, and the mixture was reacted at 30° C. for 60 min, followed by washing with phosphate buffer containing 0.1% Tween 20.
A peroxidase color solution (Bio Rad, 100 μl) was added and allowed to react at room temperature for 4 min. The color reaction was stopped by adding 1N sulfuric acid (100 μl). The absorbance at 450 nm was measured. […]

| Compound | pIC50 |
| --- | --- |
| O=C1c2c(O)c(=O)ccn2CCN1Cc1ccc(Cl)c(Cl)c1 [Example 1, 2-(3,4-dichlorobenzyl)-9-hydroxy-3,4-dihydro-2H-pyrido[1,2-a]pyrazine-1,8-dione hydrochloride] | > 8.00 |
| CC1Cn2ccc(=O)c(O)c2C(=O)N1Cc1ccc(Cl)c(Cl)c1 (stereo not shown) [Example 3, 2-(3,4-dichlorobenzyl)-9-hydroxy-3-methyl-3,4-dihydro-2H-pyrido[1,2-a]pyrazine-1,8-dione] | 7.00 to 8.00 |
| CC1(C)CN(Cc2ccc(Cl)c(Cl)c2)C(=O)c2c(O)c(=O)ccn21 [Example 4, 2-(3,4-dichlorobenzyl)-9-hydroxy-4,4-dimethyl-3,4-dihydro-2H-pyrido[1,2-a]pyrazine-1,8-dione] | 7.00 to 8.00 |
| O=C1c2c(O)c(=O)cc(CO)n2CCN1Cc1ccc(Cl)c(Cl)c1 [Example 5, 2-(3,4-dichlorobenzyl)-9-hydroxy-6-hydroxymethyl-3,4-dihydro-2H-pyrido[1,2-a]pyrazine-1,8-dione] | 7.00 to 8.00 |
| O=C(O)c1cc(=O)c(O)c2n1CCN(Cc1ccc(Cl)c(Cl)c1)C2=O [Example 6, 2-(3,4-dichlorobenzyl)-9-hydroxy-1,8-dioxo-1,3,4,8-tetrahydro-2H-pyrido[1,2-a]pyrazine-6-carboxylic acid] | 7.00 to 8.00 |
| CC(C)(C)C(=O)c1cc(=O)c(O)c2n1CCN(Cc1ccc(Cl)c(Cl)c1)C2=O [Example 7, 2-(3,4-dichlorobenzyl)-6-(2,2-dimethylpropionyl)-9-hydroxy-3,4-dihydro-2H-pyrido[1,2-a]pyrazine-1,8-dione] | > 8.00 |
| O=c1ccn2ccn(Cc3ccc(Cl)c(Cl)c3)c(=O)c2c1O [Example 8, 2-(3,4-dichlorobenzyl)-9-hydroxy-2H-pyrido[1,2-a]pyrazine-1,8-dione] | > 8.00 |
| Cc1cn2ccc(=O)c(O)c2c(=O)n1Cc1ccc(Cl)c(Cl)c1 [Example 9, 2-(3,4-dichlorobenzyl)-9-hydroxy-3-methyl-2H-pyrido[1,2-a]pyrazine-1,8-dione] | 7.00 to 8.00 |
| CC(C)c1cn(Cc2cccc(Cl)c2)c(=O)c2c(O)c(=O)ccn12 [Example 10, 2-(3-chlorobenzyl)-9-hydroxy-4-isopropyl-2H-pyrido[1,2-a]pyrazine-1,8-dione hydrochloride] | 7.00 to 8.00 |
| O=c1ccn2ccn(CCCc3c(Cl)cccc3Cl)c(=O)c2c1O [Example 11, 2-[3-(2,6-dichlorophenyl)propyl]-9-hydroxy-2H-pyrido[1,2-a]pyrazine-1,8-dione] | > 8.00 |
| O=c1ncn2ccn(Cc3ccc(Cl)c(Cl)c3)c(=O)c2c1O [Example 12, 2-(3,4-dichlorobenzyl)-9-hydroxy-2H-pyrazino[1,2-a]pyrimidine-1,8-dione hydrochloride] | 7.00 to 8.00 |
| CC1CN(Cc2ccc(Cl)c(Cl)c2)C(=O)c2c(O)c(=O)ccn21 (stereo not shown) [Example 13, 2-(3,4-dichlorobenzyl)-9-hydroxy-4-methyl-3,4-dihydro-2H-pyrido[1,2-a]pyrazine-1,8-dione] | 7.00 to 8.00 |
| O=C1c2c(O)c(=O)ccn2C(Cc2ccccc2)CN1Cc1ccc(Cl)c(Cl)c1 (stereo not shown) [Example 14, 4-benzyl-2-(3,4-dichlorobenzyl)-9-hydroxy-3,4-dihydro-2H-pyrido[1,2-a]pyrazine-1,8-dione] | 7.00 to 8.00 |
| O=C1c2c(O)c(=O)ccn2C(c2ccccc2)CN1Cc1ccc(Cl)c(Cl)c1 (stereo not shown) [Example 15, 2-(3,4-dichlorobenzyl)-9-hydroxy-4-phenyl-3,4-dihydro-2H-pyrido[1,2-a]pyrazine-1,8-dione] | 7.00 to 8.00 |
| CCCCC1CN(Cc2ccc(Cl)c(Cl)c2)C(=O)c2c(O)c(=O)ccn21 (stereo not shown) [Example 16, 4-butyl-2-(3,4-dichlorobenzyl)-9-hydroxy-3,4-dihydro-2H-pyrido[1,2-a]pyrazine-1,8-dione] | 7.00 to 8.00 |
| CC(C)C1CN(Cc2ccc(Cl)c(Cl)c2)C(=O)c2c(O)c(=O)ccn21 (stereo not shown) [Example 17, 2-(3,4-dichlorobenzyl)-9-hydroxy-4-isopropyl-3,4-dihydro-2H-pyrido[1,2-a]pyrazine-1,8-dione] | 7.00 to 8.00 |

Source: patent US7211572B2 (Japan Tobacco Inc., priority 2003, dated 2007)
